Earlier results, collected in paper PMC7732027 (Bioorganic & medicinal chemistry letters, 2019).

Tested on: A/H3N2 viruses with PA I38T/F substitutions
Conditions: cited from earlier work

Which “reduction in BXM susceptibility” value does the source give for COC(=O)OCOc1c2n(ccc1=O)N([C@@H]1c3ccccc3SCc3c1ccc(F)c3F)[C@@H]1COCCN1C2=O [BXM, baloxavir marboxil] here?
The value was “more than 10 fold”.
